Assays:
CD8+ T cells = assay: In vitro immunogenicity: in vitro T-cell priming assay with aAPCs loaded with peptide/MHC complexes and anti-CD28 antibody, pMHC multimer readout; assay type: cell-based, human; settings: pMHC multimer readout after priming of CD8+ T cells
From the text: In order to obtain information regarding the immunogenicity of the TUMAPs of the present invention, the inventors performed investigations using an in vitro T-cell priming assay based on repeated stimulations of CD8+ T cells with artificial antigen presenting cells (aAPCs) loaded with peptide/MHC complexes and anti-CD28 antibody.
In order to perform in vitro stimulations by artificial antigen presenting cells loaded with peptide-MHC complex (pMHC) and anti-CD28 antibody, the inventors first isolated CD8+ T cells from fresh HLA-B*07 leukapheresis products via positive selection using CD8 microbeads (Miltenyi Biotec, Bergisch-Gladbach, Germany) of healthy donors obtained from the University clinics Mannheim, Germany, after informed consent.
PBMCs and isolated CD8+ lymphocytes were incubated in T-cell medium (TCM) until use consisting of RPMI-Glutamax (Invitrogen, Karlsruhe, Germany) supplemented with 10% heat inactivated human AB serum (PAN-Biotech, Aidenbach, Germany), 100 U/ml Penicillin/100 μg/ml Streptomycin (Cambrex, Cologne, Germany), 1 mM sodium pyruvate (CC Pro, Oberdorla, Germany), 20 μg/ml Gentamycin (Cambrex). 2.5 ng/ml IL-7 (PromoCell, Heidelberg, Germany) and 10 U/ml IL-2 (Novartis Pharma, Nürnberg, Germany) were also added to the TCM at this step.
Generation of pMHC/anti-CD28 coated beads, T-cell stimulations and readout was performed in a highly defined in vitro system using four different pMHC molecules per stimulation condition and 8 different pMHC molecules per readout condition.
The purified co-stimulatory mouse IgG2a anti human CD28 Ab 9.3 (Jung et al., 1987) was chemically biotinylated using Sulfo-N-hydroxysuccinimidobiotin as recommended by the manufacturer (Perbio, Bonn, Germany). Beads used were 5.6 μm diameter streptavidin coated polystyrene particles (Bangs Laboratories, Illinois, USA).
800.000 beads/200 μl were coated in 96-well plates in the presence of 4×12.5 ng different biotin-pMHC, washed and 600 ng biotin anti-CD28 were added subsequently in a volume of 200 μl. Stimulations were initiated in 96-well plates by co-incubating 1×10^6 CD8+ T cells with 2×10^5 washed coated beads in 200 μl TCM supplemented with 5 ng/ml IL-12 (PromoCell) for 3 days at 37° C. Half of the medium was then exchanged by fresh TCM supplemented with 80 U/ml IL-2 and incubating was continued for four days at 37° C. This stimulation cycle was performed for a total of three times. For the pMHC multimer readout using 8 different pMHC molecules per condition, a two-dimensional combinatorial coding approach was used as previously described (Andersen et al., 2012) with minor modifications encompassing coupling to five different fluorochromes. Finally, multimeric analyses were performed by staining the cells with Live/dead near IR dye (Invitrogen, Karlsruhe, Germany), CD8-FITC antibody clone SK1 (BD, Heidelberg, Germany) and fluorescent pMHC multimers. For analysis, a BD LSRII SORP cytometer equipped with appropriate lasers and filters was used. Peptide specific cells were calculated as percentage of total CD8+ cells. Evaluation of multimeric analysis was done using the FlowJo software (Tree Star, Oregon, USA). In vitro priming of specific multimer+CD8+ lymphocytes was detected by comparing to negative control stimulations.

HLA-B*07 = HLA-B*07 (Homo sapiens, UniProt P01889); assay: MHC binding assay (UV-ligand exchange, ELISA of stabilized MHC complexes); settings: peptide exchange yield on HLA-B*07, UV-ligand exchange
Summary of the method: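 Peptide–MHC complexes were made by UV-ligand exchange, in which a UV-cleavable peptide is replaced by the test peptide. Exchange yield was measured by ELISA of stabilized complexes on streptavidin-coated plates, using HRP anti-β2m detection (1 h, 37 °C), TMB substrate and absorbance at 450 nm.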

Substance	Wells positive [%] (CD8+ T cells; Table 10b)	Peptide exchange (HLA-B*07)	Wells positive [%] (CD8+ T cells; Table 10a)
1 (RPRSLQCVSL; listed as Homo sapiens) [compound 1]	+ (<20% = +)	++++ (>75% = ++++)	–
3 (MPYVVLTAL; listed as Homo sapiens) [compound 3]	+ (<20% = +)	++++ (>75% = ++++)	–
4 (GPKKFIVKL; listed as Homo sapiens) [compound 4]	+ (<20% = +)	+++ (>50 = +++)	–
5 (LPSLSHCSQL; listed as Homo sapiens) [compound 5]	++ (20%-49% = ++)	++++ (>75% = ++++)	–
6 (LPLNSSTSL; listed as Homo sapiens) [compound 6]	+ (<20% = +)	++++ (>75% = ++++)	–
9 (RPDSRLLEL; listed as Homo sapiens) [compound 9]	+++ (50%-69% = +++)	++++ (>75% = ++++)	–
12 (LPNTGRIGQLL; listed as Homo sapiens) [compound 12]	++ (20%-49% = ++)	++++ (>75% = ++++)	–
17 (SPAAPLSPASSL; listed as Homo sapiens) [compound 17]	+ (<20% = +)	++++ (>75% = ++++)	–
21 (APSRLLEL; listed as Homo sapiens) [compound 21]	+ (<20% = +)	++++ (>75% = ++++)	–
23 (VPRPTSTVGL; listed as Homo sapiens) [compound 23]	++ (20%-49% = ++)	+++ (>50 = +++)	–
24 (VPRPTSTVGLFL; listed as Homo sapiens) [compound 24]	+ (<20% = +)	++++ (>75% = ++++)	–
26 (SPSFSSTLLSL; listed as Homo sapiens) [compound 26]	+ (<20% = +)	++++ (>75% = ++++)	–
33 (LPRGLSPARQL; listed as Homo sapiens) [compound 33]	++ (20%-49% = ++)	+++ (>50 = +++)	–
38 (RPSFPNLTSF; listed as Homo sapiens) [compound 38]	+ (<20% = +)	++++ (>75% = ++++)	–
45 (TRPWSGPYIL; listed as Homo sapiens) [compound 45]	+ (<20% = +)	+++ (>50 = +++)	–
48 (RPRYSIGL; listed as Homo sapiens) [compound 48]	+ (<20% = +)	+++ (>50 = +++)	–
49 (APEKARAFL; listed as Homo sapiens) [compound 49]	+ (<20% = +)	+++ (>50 = +++)	–
51 (SPVFYVQTL; listed as Homo sapiens) [compound 51]	+ (<20% = +)	++++ (>75% = ++++)	–
53 (SPRIPFSTF; listed as Homo sapiens) [compound 53]	+ (<20% = +)	++++ (>75% = ++++)	–
56 (LPALLRSGLTL; listed as Homo sapiens) [compound 56]	+++ (50%-69% = +++)	++++ (>75% = ++++)	–
59 (KPRTIYSSL; listed as Homo sapiens) [compound 59]	+ (<20% = +)	++++ (>75% = ++++)	–
61 (LPRIPFSTF; listed as Homo sapiens) [compound 61]	++ (20%-49% = ++)	++++ (>75% = ++++)	–
64 (VPRPIFSQLYL; listed as Homo sapiens) [compound 64]	+++ (50%-69% = +++)	++++ (>75% = ++++)	–
68 (FPNEVSVVL; listed as Homo sapiens) [compound 68]	++ (20%-49% = ++)	++++ (>75% = ++++)	–
388 (SPSVSQLSVL; listed as Homo sapiens) [compound 388]	–	–	++++ (>=70% = ++++)
389 (APLPRPGAVL; listed as Homo sapiens) [compound 389]	–	–	++ (20%-49% = ++)
390 (SPRMSGLLSQT; listed as Homo sapiens) [compound 390]	–	–	+++ (50%-69% = +++)

Substance	Wells positive [%] (CD8+ T cells; Table 10b)	Peptide exchange (HLA-B*07)	Wells positive [%] (CD8+ T cells; Table 10a)
391 (APRPASSL; listed as Homo sapiens) [compound 391]	–	–	+ (<20% = +)
392 (GPQPWHAAL; listed as Homo sapiens) [compound 392]	–	–	++ (20%-49% = ++)
393 (APAAWLRSA; listed as Homo sapiens) [compound 393]	–	–	+++ (50%-69% = +++)
396 (VPDVAQFVL; listed as Homo sapiens) [compound 396]	–	–	++ (20%-49% = ++)
398 (SPASRSISL; listed as Homo sapiens) [compound 398]	–	–	+ (<20% = +)
399 (NPFYPEVEL; listed as Homo sapiens) [compound 399]	–	–	+ (<20% = +)
405 (LPFDGPGGIL; listed as Homo sapiens) [compound 405]	–	–	++++ (>=70% = ++++)
406 (LPDGSRVEL; listed as Homo sapiens) [compound 406]	–	–	++++ (>=70% = ++++)
407 (FPRLVGPDF; listed as Homo sapiens) [compound 407]	–	–	+++ (50%-69% = +++)
408 (YPKDIYSSF; listed as Homo sapiens) [compound 408]	–	–	++ (20%-49% = ++)
410 (SPRSWIQVQI; listed as Homo sapiens) [compound 410]	–	–	+ (<20% = +)
411 (IPNWARQDL; listed as Homo sapiens) [compound 411]	–	–	++++ (>=70% = ++++)
414 (KPSESIYSAL; listed as Homo sapiens) [compound 414]	–	–	++ (20%-49% = ++)
415 (LPSDSHFKITF; listed as Homo sapiens) [compound 415]	–	–	++ (20%-49% = ++)
418 (RPMTPTQIGPSL; listed as Homo sapiens) [compound 418]	–	–	+ (<20% = +)
419 (SPMWHVQQL; listed as Homo sapiens) [compound 419]	–	–	++++ (>=70% = ++++)
420 (SPRWLPVSL; listed as Homo sapiens) [compound 420]	–	–	++++ (>=70% = ++++)
423 (SPRVYWLGL; listed as Homo sapiens) [compound 423]	–	–	++++ (>=70% = ++++)
425 (YPRGNHWAVGHL; listed as Homo sapiens) [compound 425]	–	–	++ (20%-49% = ++)
427 (VPSSRILQL; listed as Homo sapiens) [compound 427]	–	–	+++ (50%-69% = +++)
429 (RPRALRDLQL; listed as Homo sapiens) [compound 429]	–	–	++ (20%-49% = ++)
430 (RPRALRDLQLL; listed as Homo sapiens) [compound 430]	–	–	+++ (50%-69% = +++)
433 (IPEPSAQQL; listed as Homo sapiens) [compound 433]	–	–	+ (<20% = +)
437 (FPYPYAERL; listed as Homo sapiens) [compound 437]	–	–	+++ (50%-69% = +++)
440 (YPRTITPGM; listed as Homo sapiens) [compound 440]	–	–	+ (<20% = +)
443 (VPDGVSKVL; listed as Homo sapiens) [compound 443]	–	–	+++ (50%-69% = +++)
445 (RPAATAVISL; listed as Homo sapiens) [compound 445]	–	–	+ (<20% = +)
